Measured values from ChEMBL document CHEMBL5236573, “Development of benzodioxine-heteroarylpiperazines as highly potent and selective α2c antagonists” (Bioorg Med Chem Lett, 2022).
Values after ≈ are worked out from the molar mass of the structure shown.

Legend:
[1] = molecular target: T1, Alpha-2A adrenergic receptor (Homo sapiens) (UniProt P08913); assay: Antagonist activity at alpha2a-adrenoceptor (unknown origin) assessed as reduction in adrenaline-induced response by measuring equilibrium binding constant; conditions: filed as antagonist
T1 sequence (whole entry): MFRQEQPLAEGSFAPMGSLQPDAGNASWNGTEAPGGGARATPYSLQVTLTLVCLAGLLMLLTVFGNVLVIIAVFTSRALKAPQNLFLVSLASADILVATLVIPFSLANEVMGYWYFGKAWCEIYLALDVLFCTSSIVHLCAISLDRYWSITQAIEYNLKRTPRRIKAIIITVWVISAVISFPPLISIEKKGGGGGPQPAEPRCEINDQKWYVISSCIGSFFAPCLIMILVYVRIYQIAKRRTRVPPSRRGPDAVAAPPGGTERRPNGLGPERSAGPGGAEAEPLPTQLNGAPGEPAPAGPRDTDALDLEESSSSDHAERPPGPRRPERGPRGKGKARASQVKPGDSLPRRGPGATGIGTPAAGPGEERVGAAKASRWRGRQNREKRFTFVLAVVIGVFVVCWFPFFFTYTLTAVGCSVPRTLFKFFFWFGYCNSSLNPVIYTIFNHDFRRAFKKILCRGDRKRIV

[2] = Metabolic stability in rat hepatocytes assessed as clearance per 10^6 cells at 1 uM; assay type: ADME, cell-based, Hepatocyte; conditions: read-out: CLH
[3] = Solubility of the compound in pH 7.4 buffer; assay type: physicochemical
[4] = Metabolic stability in human hepatocytes assessed as clearance per 10^6 cells at 1 uM; assay type: ADME, cell-based, Hepatocyte; conditions: read-out: CLH
Homo sapiens = species on record: Homo sapiens; assay: Selectivity index, ratio of Kb for antagonist activity at alpha2a-adrenoceptor (unknown origin) to Kb for antagonist activity at alpha2c-adrenoceptor (unknown origin)
[5] = molecular target: T2, Alpha-2C adrenergic receptor (Homo sapiens) (UniProt P18825); assay: Antagonist activity at alpha2c-adrenoceptor (unknown origin) assessed as reduction in adrenaline-induced response by measuring equilibrium binding constant; conditions: filed as antagonist
T2 sequence (whole entry): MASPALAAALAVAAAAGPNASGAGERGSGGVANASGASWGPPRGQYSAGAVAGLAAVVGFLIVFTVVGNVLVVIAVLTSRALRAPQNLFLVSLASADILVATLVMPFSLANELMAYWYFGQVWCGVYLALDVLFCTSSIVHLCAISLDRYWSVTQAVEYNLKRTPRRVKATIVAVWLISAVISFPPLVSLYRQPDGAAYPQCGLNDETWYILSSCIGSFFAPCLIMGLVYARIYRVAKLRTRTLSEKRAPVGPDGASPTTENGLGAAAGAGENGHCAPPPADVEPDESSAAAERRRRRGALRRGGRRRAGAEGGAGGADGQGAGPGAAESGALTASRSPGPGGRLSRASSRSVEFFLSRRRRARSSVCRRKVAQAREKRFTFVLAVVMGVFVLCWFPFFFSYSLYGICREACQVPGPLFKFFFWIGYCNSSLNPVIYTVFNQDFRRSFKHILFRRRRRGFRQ

[6] = Lipophilicity, logD of the compound; assay type: physicochemical; conditions: octanol/water
[7] = Permeability across apical to basolateral side in human Caco-2 cells; assay type: ADME, cell-based; conditions: read-out: permeability
[8] = Permeability across basolateral to apical side in human Caco-2 cells; assay type: ADME, cell-based; conditions: read-out: permeability
[9] = Efflux ratio of permeability across basolateral to apical side over apical to basolateral side in human Caco-2 cells; assay type: ADME, cell-based
[10] = Unbound Cmax in rat brain at 1 mg/kg, po by rapid equilibrium dialysis method; assay type: ADME, organism-based; conditions: in vivo
[11] = Tmax in rat plasma at 1 mg/kg, po; assay type: ADME, organism-based
[12] = Unbound brain-to-plasma concentration ratio in rat at 1 mg/kg, po; assay type: ADME, organism-based; conditions: brain and plasma, read-out: K(p,uu,brain)
[13] = Unbound Cmax in rat plasma at 1 mg/kg, po by rapid equilibrium dialysis method; assay type: ADME, organism-based; conditions: in vivo
[14] = Unbound fraction in rat brain at 1 mg/kg, po; assay type: ADME, organism-based
[15] = Cmax in rat brain at 1 mg/kg, po; assay type: ADME, organism-based; set-up: dose 1 mg/kg, route po
[16] = AUC (0 to 6 hrs) in rat brain at 1 mg/kg, po; assay type: ADME, organism-based; set-up: dose 1 mg/kg, route po
[17] = AUC (0 to 6 hrs) in rat plasma at 1 mg/kg, po; assay type: ADME, organism-based; set-up: dose 1 mg/kg, route po
[18] = Tmax in rat brain at 1 mg/kg, po; assay type: ADME, organism-based
[19] = Unbound fraction in rat plasma at 1 mg/kg, po; assay type: ADME, organism-based
[20] = Cmax in rat plasma at 1 mg/kg, po; assay type: ADME, organism-based; set-up: dose 1 mg/kg, route po

Row | Structure (SMILES) | Kb [1] [nM] | hepatocyte CLint at 1 µM [2] [µL/min/1e6 cells] | solubility [3] [µM] | hepatocyte CLint at 1 µM [4] [µL/min/1e6 cells] | Ratio (Homo sapiens) | Kb [5] [nM] | logD [6] | also measured
1 | COc1scnc1N1CCN(C[C@H]2COc3ccccc3O2)CC1 | 88.3 | 54.4 | 445 (≈ 155 µg/mL) | 14.3 | 8830 | 0.01 | 2.3 | 
2 | CC1(C)CCN(c2nsnc2N2CCN(C[C@H]3COc4ccccc4O3)CC2)C1=O | 449 | 128 | 133 (≈ 57.1 µg/mL) | 18.1 | 44900 | 0.01 | 3.1 | 
3 | COCc1cccnc1N1CCN(C[C@H]2COc3ccccc3O2)CC1 [ORM-13070] | 130 |  | 176 (≈ 62.6 µg/mL) |  | 4330 | 0.03 | 3.3 | 
4 | CN(C)C(=O)c1nsnc1N1CCN(C[C@H]2COc3ccccc3O2)CC1 | 449 | 30 | 719 (≈ 280 µg/mL) | 1.75 | 4990 | 0.09 | 2.5 | 
5 | O=C1NCCN1c1nsnc1N1CCN(C[C@H]2COc3ccccc3O2)CC1 | 449 | 1.8 |  | 1.8 | 5930 | 0.076 |  | 
6 | O=C1CCCN1c1ncsc1N1CCN(C[C@H]2COc3ccccc3O2)CC1 | 317 | 5 | 1130 (≈ 451 µg/mL) | 3.6 | 7940 | 0.04 | 1.9 | Papp A→B [7]: 42.4 ×10⁻⁶ cm/s; Papp B→A [8]: 24.3 ×10⁻⁶ cm/s; efflux ratio [9]: 0.6
7 | Cc1c(N2CCNC2=O)c(N2CCN(C[C@H]3COc4ccccc4O3)CC2)nn1C | 449 | 1.8 | 114 (≈ 47 µg/mL) | 1.8 | 7480 | 0.06 |  | Papp A→B [7]: 2.9 ×10⁻⁶ cm/s; Papp B→A [8]: 21.4 ×10⁻⁶ cm/s; efflux ratio [9]: 7.5
8 | c1ccc2c(c1)OC[C@H](CN1CCN(c3nsnc3Nc3ccncn3)CC1)O2 | 459 | 29.3 |  | 14.2 | 45900 | 0.01 |  | 
9 | CN1CCN(c2nsnc2N2CCN(C[C@H]3COc4ccccc4O3)CC2)C1=O | 449 |  |  |  | 4.15 | 108 |  | 
10 | CC1CCN(c2nsnc2N2CCN(C[C@H]3COc4ccccc4O3)CC2)C1=O (stereo not given in full) | 449 | 73.7 | 395 (≈ 164 µg/mL) | 6.3 | 11200 | 0.04 | 2.8 | 
11 | O=C1CCCN1c1cccnc1N1CCN(C[C@H]2COc3ccccc3O2)CC1 | 44.9 |  |  |  | 4490 | 0.01 |  | 
12 | O=C1CCCN1c1nsnc1N1CCN(C[C@H]2COc3ccccc3O2)CC1 | 282 | 16.2 | 822 (≈ 330 µg/mL) | 8.2 | 5380 | 0.05 | 2.2 | fCmax [10]: 26 nM; Tmax [11]: 15 min; Papp A→B [7]: 73.6 ×10⁻⁶ cm/s; Kp uu [12]: 0.45; fCmax [13]: 52 nM; fraction unbound [14]: 0.104; Cmax [15]: 101 ng/g; AUC(0-t) [16]: 140 ng·h/mL; AUC(0-t) [17]: 189 ng·h/mL; Papp B→A [8]: 44.3 ×10⁻⁶ cm/s; Tmax [18]: 15 min; fraction unbound [19]: 0.185; Cmax [20]: 113 ng/mL; efflux ratio [9]: 0.6
13 | Oc1cccc([C@H]2CCCN(C[C@H]3COc4ccccc4O3)C2)c1 |  |  |  |  |  |  |  | fCmax [10]: < 0.09 nM; fCmax [13]: < 0.06 nM; fraction unbound [14]: < 0.01; AUC(0-t) [16]: 14 ng·h/mL; AUC(0-t) [17]: 9 ng·h/mL; fraction unbound [19]: < 0.01
